Among the data in patent publication US9108983B2, “Pyrrole compounds, a process for their preparation and pharmaceutical compositions containing them” (LES LABORATOIRES SERVIER, priority 2013, dated 2015) are IC50 values, retold here.

By IC50 is commonly meant the concentration at which inhibition is half-maximal.

Counter-ions that a name gives are not always drawn. Like-named read-outs stand apart in the source and are kept apart here.

In assay [1] the target is Bcl-2 protein (histag-Bcl-2, UniProtKB P10415) (Homo sapiens (Human), UniProt P10415). Nature of the assay: Inhibition of Bcl-2 by the fluorescence polarisation technique. The class given is binding. The note with it: incubation for 2 hours, read-out: IC50 (nM) Bcl-2 FP. As to the method: The fluorescence polarisation tests were carried out on microplates (384 wells). The Bcl-2 protein, labelled (histag-Bcl-2 such that Bcl-2 corresponds to the UniProtKB® primary accession number: P10415), at a final concentration of 2.50×10^−8 M, is mixed with a fluorescent peptide (Fluorescein-[…]), at a final concentration of 1.00×10^−8 M in a buffer solution (Hepes 10 mM, NaCl 150 mM, Tween20 0.05%, pH 7.4), in the presence or absence of increasing concentrations of test compounds. After incubation for 2 hours, the fluorescence polarisation is measured.
(In general: Fluorescence polarisation rises when a labelled molecule tumbles more slowly, as on binding a larger partner.)

Assay [2] concerns RS4;11 leukaemia tumour line. Nature of the assay: In vitro cytotoxicity (Microculture Tetrazolium Assay). The class given is cell-based. The settings on record: Homo sapiens, RS4;11 cells, exposed for 48 hours, cell viability, read-out: IC50 (nM) MTT RS4;11. As for the experimental part:
The cytotoxicity studies were carried out on the RS4;11 leukaemia tumour line.
The cells are distributed onto microplates and exposed to the test compounds for 48 hours.
The cell viability is then quantified by a colorimetric assay, the Microculture Tetrazolium Assay (Cancer Res., 1987, 47, 939-942).

Chain of Bcl-2 protein (P10415 whole entry): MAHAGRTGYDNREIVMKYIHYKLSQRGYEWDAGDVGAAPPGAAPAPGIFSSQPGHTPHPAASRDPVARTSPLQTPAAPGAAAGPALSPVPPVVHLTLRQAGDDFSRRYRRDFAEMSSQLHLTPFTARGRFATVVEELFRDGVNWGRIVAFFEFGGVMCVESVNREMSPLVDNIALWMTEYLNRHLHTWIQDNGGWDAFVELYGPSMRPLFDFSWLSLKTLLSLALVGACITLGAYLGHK

On to `COc1ccc(C(=O)N2Cc3ccccc3C[C@H]2CN2CCOCC2)c(-c2cc(C(=O)N(c3ccc(O)cc3)c3cnn(C)c3)c(C)n2C)c1` [Example 24, N-(4-Hydroxyphenyl)-5-(5-methoxy-2-{[(3S)-3-(morpholin-4-ylmethyl)-3,4-dihydroisoquinolin-2(1H)-yl]carbonyl}phenyl)-1,2-dimethyl-N-(1-methyl-1H-pyrazol-4-yl)-1H-pyrrole-3-carboxamide hydrochloride], for which the IC50 is 6.2 nM in assay [1] and 79.1 nM in assay [2] (RS4-11, 48 h).
The corresponding values for `CNCCn1c(-c2cc3c(cc2C(=O)N2Cc4ccccc4C[C@H]2C)OCO3)cc(C(=O)N(c2ccc(O)cc2)c2cnn(C)c2)c1C` [Example 26, N-(4-Hydroxyphenyl)-2-methyl-1-[2-(methylamino)ethyl]-5-(6-{[(3R)-3-methyl-3,4-dihydroisoquinolin-2(1H)-yl]carbonyl}-1,3-benzodioxol-5-yl)-N-(1-methyl-1H-pyrazol-4-yl)-1H-pyrrole-3-carboxamide hydrochloride] are 4.1 nM and 541 nM.
The corresponding values for `Cc1c(C(=O)N(c2ccc(O)cc2)c2cnn(C)c2)cc(-c2cc3c(cc2C(=O)N2Cc4ccccc4C[C@H]2C)OCO3)n1CCN(C)C` [Example 27, 1-[2-(Dimethylamino)ethyl]-N-(4-hydroxyphenyl)-2-methyl-5-(6-{[(3R)-3-methyl-3,4-dihydroisoquinolin-2(1H)-yl]carbonyl}-1,3-benzodioxol-5-yl)-N-(1-methyl-1H-pyrazol-4-yl)-1H-pyrrole-3-carboxamide hydrochloride] are 5.2 nM and 93.4 nM.
Consider `Cc1c(C(=O)N(c2ccncc2)c2ccc(O)cc2)cc(-c2cc(Cl)ccc2C(=O)N2Cc3ccccc3C[C@H]2C)n1C` [Example 28, 5-(5-Chloro-2-{[(3R)-3-methyl-3,4-dihydroisoquinolin-2(1H)-yl]carbonyl}phenyl)-N-(4-hydroxyphenyl)-1,2-dimethyl-N-(pyridin-4-yl)-1H-pyrrole-3-carboxamide hydrochloride], for which the IC50 in assay [1] amounted to 7.5 nM; in assay [2] (RS4-11, 48 h) it was 95.3 nM.
On the same counts, the results for `CC1=C(C(=O)N(c2ccccc2)c2ccc(O)cc2)CC(c2cc(Cl)ccc2C(=O)N2Cc3ccccc3C[C@H]2COCCN2CCOCC2)N1C` (stereo partly drawn) [Example 29, 5-(5-Chloro-2-{[(3S)-3-{[2-(morpholin-4-yl)ethoxy]methyl}-3,4-dihydroisoquinolin-2(1H)-yl]carbonyl}phenyl)-N-(4-hydroxyphenyl)-1,2-dimethyl-N-phenyl-4H-pyrrole-3-carboxamide hydrochloride] are 6.6 nM and 47.5 nM.
For `Cc1c(C(=O)N(c2ccc(O)cc2)c2cnn(C)c2)cc(-c2cc3c(cc2C(=O)N2Cc4ccccc4C[C@H]2C)OCO3)n1CCN` [Example 30, 1-(2-Aminoethyl)-N-(4-hydroxyphenyl)-2-methyl-5-(6-{[(3R)-3-methyl-3,4-dihydroisoquinolin-2(1H)-yl]carbonyl}-1,3-benzodioxol-5-yl)-N-(1-methyl-1H-pyrazol-4-yl)-1H-pyrrole-3-carboxamide hydrochloride], the IC50 in assay [1] came out at 4.7 nM; in assay [2] (RS4-11, 48 h), 771 nM.
The corresponding values for `COc1ccc(C(=O)N2Cc3ccccc3C[C@H]2C)c(-c2cc(C(=O)N(c3ccc(O)cc3)c3cnn(C)c3)c(C)n2C)c1` [Example 31, N-(4-Hydroxyphenyl)-5-(5-methoxy-2-{[(3R)-3-methyl-3,4-dihydroisoquinolin-2(1H)-yl]carbonyl}phenyl)-1,2-dimethyl-N-(1-methyl-1H-pyrazol-4-yl)-1H-pyrrole-3-carboxamide] are 7.2 nM and 89.3 nM.
As to `Cc1c(C(=O)N(C)c2ccc(O)cc2)cc(-c2ccc(CNC(=O)Oc3ccccc3)cc2C(=O)N2Cc3ccccc3C[C@H]2C)n1C` [Example 32, Phenyl (4-{4-[(4-hydroxyphenyl)(methyl)carbamoyl]-1,5-dimethyl-1H-pyrrol-2-yl}-3-{[(3R)-3-methyl-3,4-dihydroisoquinolin-2(1H)-yl]carbonyl}benzyl)-carbamate], the values for the concentration for half-maximal inhibition (IC50) in assay [1] and in assay [2] were 13.3 nM and 240 nM, respectively.
Turning to `Cc1c(C(=O)N(c2ccc(O)cc2)c2ccc(F)cc2)cc(-c2cc(Cl)ccc2C(=O)N2Cc3ccccc3C[C@H]2CN2CCOCC2)n1C` [Example 33, 5-(5-Chloro-2-{[(3S)-3-(morpholin-4-ylmethyl)-3,4-dihydroisoquinolin-2(1H)-yl]carbonyl}phenyl)-N-(4-fluorophenyl)-N-(4-hydroxyphenyl)-1,2-dimethyl-1H-pyrrole-3-carboxamide hydrochloride], the IC50 in assay [1] stood at 10.9 nM; in assay [2] (RS4-11, 48 h) it was 57.8 nM.
On the same counts, the results for `Cc1c(C(=O)N(c2ccc(O)cc2)c2cccc(F)c2)cc(-c2cc(Cl)ccc2C(=O)N2Cc3ccccc3C[C@H]2CN2CCOCC2)n1C` [Example 34, 5-(5-Chloro-2-{[(3S)-3-(morpholin-4-ylmethyl)-3,4-dihydroisoquinolin-2(1H)-yl]carbonyl}phenyl)-N-(3-fluorophenyl)-N-(4-hydroxyphenyl)-1,2-dimethyl-1H-pyrrole-3-carboxamide hydrochloride] are 8.2 nM and 47 nM.
The corresponding values for `Cc1c(C(=O)N(C)c2ccc(O)cc2)cc(-c2ccc(CNC(=O)COc3ccccc3)cc2C(=O)N2Cc3ccccc3C[C@H]2C)n1C` [Example 35, N-(4-Hydroxyphenyl)-N,1,2-trimethyl-5-(2-{[(3R)-3-methyl-3,4-dihydroisoquinolin-2(1H)-yl]carbonyl}-4-{[(phenoxyacetyl)amino]methyl}phenyl)-1H-pyrrole-3-carboxamide] are 50 nM and 560 nM.
The corresponding values for `CCNC(=O)NCc1ccc(-c2cc(C(=O)N(C)c3ccc(O)cc3)c(C)n2C)c(C(=O)N2Cc3ccccc3C[C@H]2C)c1` [Example 36, 5-(4-{[(Ethylcarbamoyl)amino]methyl}-2-{[(3R)-3-methyl-3,4-dihydroisoquinolin-2(1H)-yl]carbonyl}phenyl)-N-(4-hydroxyphenyl)-N,1,2-trimethyl-1H-pyrrole-3-carboxamide] are 71.4 nM and over 600 nM.
`Cc1c(C(=O)N(C)c2ccc(O)cc2)cc(-c2ccc(CNC(=O)NCc3ccccc3)cc2C(=O)N2Cc3ccccc3C[C@H]2C)n1C` [Example 37, 5-(4-{[(Benzylcarbamoyl)amino]methyl}-2-{[(3R)-3-methyl-3,4-dihydroisoquinolin-2(1H)-yl]carbonyl}phenyl)-N-(4-hydroxyphenyl)-N,1,2-trimethyl-1H-pyrrole-3-carboxamide]: the IC50 in assay [1] is 60.4 nM; in assay [2] (RS4-11, 48 h) it was over 600 nM.
On the same counts, the results for `Cc1c(C(=O)N(c2ccccc2)c2ccc(O)cc2)cc(-c2cc(Cl)ccc2C(=O)N2Cc3ccccc3C[C@H]2CO)n1C` [Example 38, 5-(5-Chloro-2-{[(3S)-3-(hydroxymethyl)-3,4-dihydroisoquinolin-2(1H)-yl]carbonyl}phenyl)-N-(4-hydroxyphenyl)-1,2-dimethyl-N-phenyl-1H-pyrrole-3-carboxamide] are 7.5 nM and 134 nM.
The corresponding values for `Cc1c(C(=O)N(c2ccc(O)cc2)c2cnn(C)c2)cc(-c2cc3c(cc2C(=O)N2Cc4ccccc4C[C@H]2C)OCO3)n1C` [Example 39, N-(4-Hydroxyphenyl)-1,2-dimethyl-5-(6-{[(3R)-3-methyl-3,4-dihydroisoquinolin-2(1H)-yl]carbonyl}-1,3-benzodioxol-5-yl)-N-(1-methyl-1H-pyrazol-4-yl)-1H-pyrrole-3-carboxamide] are 7.2 nM and 19.7 nM.
For the compound `Cc1c(C(=O)N(C)c2ccc(O)cc2)cc(-c2cc(CNC(=O)Oc3ccccc3)ccc2C(=O)N2Cc3ccccc3C[C@H]2C)n1C` [Example 40, Phenyl (3-{4-[(4-hydroxyphenyl)(methyl)carbamoyl]-1,5-dimethyl-1H-pyrrol-2-yl}-4-{[(3R)-3-methyl-3,4-dihydroisoquinolin-2(1H)-yl]carbonyl}benzyl)-carbamate], the IC50 in assay [1] amounted to 64.4 nM; in assay [2], 431 nM.
Take `Cc1c(C(=O)N(c2ccc(O)cc2)c2cccc(F)c2)cc(-c2cc3c(cc2C(=O)N2Cc4ccccc4C[C@H]2C)OCO3)n1C` [Example 41, N-(3-Fluorophenyl)-N-(4-hydroxyphenyl)-1,2-dimethyl-5-(6-{[(3R)-3-methyl-3,4-dihydroisoquinolin-2(1H)-yl]carbonyl}-1,3-benzodioxol-5-yl)-1H-pyrrole-3-carboxamide]: the IC50 is 10 nM in assay [1] and 22.6 nM in assay [2] (RS4-11, 48 h).
The corresponding values for `Cc1c(C(=O)N(c2ccc(O)cc2)c2cnc3c(ccn3C)c2)cc(-c2cc3c(cc2C(=O)N2Cc4ccccc4C[C@H]2C)OCO3)n1C` [Example 42, N-(4-Hydroxyphenyl)-1,2-dimethyl-5-(6-{[(3R)-3-methyl-3,4-dihydroisoquinolin-2(1H)-yl]carbonyl}-1,3-benzodioxol-5-yl)-N-(1-methyl-1H-pyrrolo[2,3-b]pyridin-5-yl)-1H-pyrrole-3-carboxamide] are 5.2 nM and 4.36 nM.
The corresponding values for `Cc1c(C(=O)N(c2ccccc2)c2ccc(O)cc2)cc(-c2cc3c(cc2C(=O)N2Cc4ccccc4C[C@H]2C)OCO3)n1C` [Example 43, N-(4-Hydroxyphenyl)-1,2-dimethyl-5-(6-{[(3R)-3-methyl-3,4-dihydroisoquinolin-2(1H)-yl]carbonyl}-1,3-benzodioxol-5-yl)-N-phenyl-1H-pyrrole-3-carboxamide] are 5.1 nM and 28.9 nM.
